Measured values reported in patent US12171229B2, “Heteroaryl-triazole and heteroaryl-tetrazole compounds as pesticides” (BAYER AKTIENGESELLSCHAFT, priority 2018, dated 2024).

Experiments:
Assay type in all cases: in vivo
Diabrotica balteata = Diabrotica balteata spray test; settings: Diabrotica balteata, in Triticum aestivum, 168 h, after 7 days, larvae on wheat seeds, read-out: efficacy (seedlings grown up); for pest or weed control at 80 µg/disc, 250 g/ha: 80 μg/well (=250 g/ha); for pest or weed control at 160 µg/disc, 500 g/ha: 160 μg/well (=500 g/ha)
How it was run: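 Scoring at 7 days compares seedling growth with untreated, uninfested controls (100% = equal growth, 0% = none grown). Wheat seedlings germinated 1 day on agar, 5 per well, received a spray of test solution made in 1000 ppm emulsifier water. Each unit then received 10–20 beetle larvae.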

[1] = test system: Anopheles funestus strain FUMOZ-R; experiment: Anopheles funestus test (ANPHFU surface treatment & contact assay); settings: 24 hours after contact, read-out: efficacy (mortality); for mortality at 20 mg/m2: surface concentration 20 mg/m^2, exposure 30 minutes; for mortality at 4 mg/m2: surface concentration 4 mg/m^2, exposure 30 minutes
Experimental: Anopheles funestus Test (ANPHFU Surface Treatment & Contact Assay)
(§1) Solvent: Aceton+2000 ppm rapeseed oil methyl ester (RME)
In order to produce a sufficient, active ingredient containing solution it is necessary to solve the test compound in the solvent-mix (acetone at 2 mg/ml/RME 2000 ppm). This solution is pipetted onto a glazed tile and after evaporation of the acetone, adult mosquitoes of the species Anopheles funestus strain FUMOZ-R (Hunt et al., Med. Vet. Entomol. 2005 September; 19(3): 271-275) are placed onto the dried surface. The exposure time is 30 minutes.
(§2) Mortality in percent (%) is determined 24 hours after contact of the insects to the treated surface. 100% mortality means that all tested insects are dead, whereas 0% means that no insect died.

Ctenocephalides felis [2] = experiment: Ctenocephalides felis oral test; settings: 48 h, 100 ppm in cattle blood, after 2 days, adult unfed cat fleas
How it was run: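 Compound dissolved in DMSO and diluted in cattle blood to test concentration, offered to ~20 unfed adult fleas via a parafilm-sealed blood chamber held at 37° C (fleas at room temperature). Kill recorded at 2 days as % mortality.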

Boophilus microplus = Boophilus microplus injection test; settings: Rhipicephalus microplus, 168 h; 20 μg/animal injected into the abdomen; adult engorged female ticks; egg deposition after 7 days; read-out: efficacy (infertile eggs)
How it was run: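 Efficacy, from 0% (all eggs fertile) to 100% (all infertile), was scored on eggs laid by five engorged adult females. Each female was injected intra-abdominally with 1 μl of compound solution in DMSO. Fertile egg laying was checked at 7 days, with uncertain eggs kept until hatching at about 42 days.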

Myzus persicae [3] = experiment: Myzus persicae oral test; settings: 120 h, 4 ppm, after 5 days
How it was run: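 Aphid mortality (%) was recorded 5 days after a mixed Myzus persicae population began sucking, through parafilm, on compound solutions (acetone stock diluted with water) combined with sugar-supplemented IPL41 medium.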

[4] = test system: Culex quinquefasciatus strain P00; experiment: Culex quinquefasciatus test (CULXFA surface treatment & contact assay); settings: 24 hours after contact, read-out: efficacy (mortality); for mortality at 20 mg/m2: surface concentration 20 mg/m^2, exposure 30 minutes
Experimental: Culex Quinquefasciatus Test (CULXFA Surface Treatment & Contact Assay)
as §1
In order to produce a sufficient, active ingredient containing solution it is necessary to solve the test compound in the solvent-mix (acetone at 2 mg/ml/RME 2000 ppm). This solution is pipetted onto a glazed tile and after evaporation of the acetone, adult mosquitoes of the species Culex quinquefasciatus strain P00 are placed onto the dried surface. The exposure time is 30 minutes.
as §2

Myzus persicae [5] = experiment: Myzus persicae spray test; settings: foliar, 120 h, after 5 days, Chinese cabbage leaf disks
Experimental: Myzus persicae—Spray Test
(§3) To produce a suitable preparation of active compound, 1 part by weight of active compound is mixed with the stated amount of solvents and is diluted with water, containing an emulsifier concentration of 1000 ppm, to the desired concentration. Further test concentrations are prepared by dilution with emulsifier containing water.
Chinese cabbage (Brassica pekinensis) leaf disks infected with all instars of the green peach aphid (Myzus persicae), are sprayed with a preparation of the active ingredient of the desired concentration.
After 5 days mortality in % is determined. 100% means all aphids have been killed and 0% means none of the aphids have been killed.

Spodoptera frugiperda = Spodoptera frugiperda spray test; settings: 168 h, after 7 days, larvae on maize leaf sections
How it was run: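 Seven-day percent mortality of larvae feeding on Zea mays leaf sections sprayed with test compound. Dilutions were made in water holding 1000 ppm emulsifier.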

[6] = test system: Aedes aegypti strain MONHEIM; experiment: Aedes aegypti test (AEDSAE surface treatment & contact assay); settings: 24 hours after contact, read-out: efficacy (mortality); for mortality at 20 mg/m2: surface concentration 20 mg/m^2, exposure 30 minutes; for mortality at 4 mg/m2: surface concentration 4 mg/m^2, exposure 30 minutes
Experimental: Aedes Aegypti Test (AEDSAE Surface Treatment & Contact Assay)
as §1
In order to produce a sufficient, active ingredient containing solution it is necessary to solve the test compound in the solvent-mix (acetone at 2 mg/ml/RME 2000 ppm). This solution is pipetted onto a glazed tile and after evaporation of the acetone, adult mosquitoes of the species Aedes aegypti strain MONHEIM are placed onto the dried surface. The exposure time is 30 minutes.
as §2

Nezara viridula = Nezara viridula spray test; settings: 96 h, 500 g/ha, after 4 days, larvae on barley plants
How it was run: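 Mortality (%) was assessed at day 4, from 0% (no bugs dead) to 100% (all dead). The spray solution was compound diluted to test concentration in water with 1000 ppm emulsifier and applied to barley carrying southern green stink bug larvae.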

Ctenocephalides felis [7] = experiment: Ctenocephalides felis in-vitro contact test, adult cat flea; settings: 5 μg/cm^2 (=500 g/ha), after 48 hours, adult cat fleas, read-out: efficacy (fleas dead or moribund)
Experimental: Ctenocephalides Felis—In-Vitro Contact Tests Adult Cat Flea 9 mg compound is solved in 1 ml acetone and diluted with acetone to the desired concentration. 250 μl of the test solution is filled in 25 ml glass test tubes and homogeneously distributed on the inner walls by rotation and tilting on a shaking device (2 h at 30 rpm). With a compound concentration of 900 ppm, an inner surface of 44.7 cm^2 and a homogeneous distribution, a dose of 5 μg/cm^2 is achieved. After the solvent has evaporated, each test tube is filled with 5-10 adult cat fleas (Ctenocephalides felis), closed with a perforated lid and incubated in a lying position at room temperature and relative humidity. After 48 hours efficacy is determined. The fleas are patted on the ground of the tubes and are incubated on a heating plate at 45-50° C. for at most 5 minutes. Immotile or uncoordinated moving fleas, which are not able to escape the heat by climbing upwards, are marked as dead or moribund. […] An efficacy of 100% means all fleas are dead or moribund; 0% means no fleas are dead or moribund.

Nilaparvata lugens = Nilaparvata lugens spray test; settings: 336 h, after 14 days, rice plants
Experimental: Nilaparvata lugens—Spray Test
as §3
Rice plants (Oryza sativa) are sprayed with a preparation of the active ingredient of the desired concentration and the plants are infested with the brown planthopper (Nilaparvata lugens).
After 14 days mortality in % is determined. 100% means all planthoppers have been killed and 0% means none of the planthoppers have been killed.

| Structure (SMILES) | pest or weed control at 80 µg/disc, 250 g/ha (Diabrotica balteata) | pest or weed control at 160 µg/disc, 500 g/ha (Diabrotica balteata) | mortality at 20 mg/m2 [1] | mortality at 100 ppm (Ctenocephalides felis [2]) | pest or weed control at 0.02 mg (Boophilus microplus) | mortality at 4 ppm (Myzus persicae [3]) | mortality at 20 mg/m2 [4] | mortality at 100 g/ha (Myzus persicae [5]) | mortality at 4 mg/m2 [1] | mortality at 100 g/ha (Spodoptera frugiperda) | mortality at 500 g/ha (Spodoptera frugiperda) | mortality at 20 mg/m2 [6] | mortality at 500 g/ha (Nezara viridula) | mortality at 4 mg/m2 [6] | mortality at 4 mg/m2 ([4]; surface concentration 4 mg/m^2, exposure 30 minutes) | mortality at 500 g/ha (Myzus persicae [5]) | pest or weed control at 5 µg/cm2 (Ctenocephalides felis [7]) | mortality at 500 g/ha (Nilaparvata lugens) |
| --- | --- | --- | --- | --- | --- | --- | --- | --- | --- | --- | --- | --- | --- | --- | --- | --- | --- | --- |
| C[C@H](NC(=O)c1cc(Cl)cc(C(F)(F)F)c1)c1ncnn1C1CCS(=O)(=O)C1 (single isomer, unassigned) [Example I-024] | 100% | 100% | 90 to 100% | 100% | 100% | 100% | 90 to 100% | 90% |  |  |  |  |  |  |  |  |  |  |
| C[C@H](NC(=O)c1cc(Cl)cc(C(F)(F)F)c1)c1ncnn1-c1ccc(SC(F)(F)F)cn1 [Example I-026, 3-chloro-5-(trifluoromethyl)-N-[(1S)-1-(1-{5-[(trifluoromethyl)sulfanyl]pyridin-2-yl}-1H-1,2,4-triazol-5-yl)ethyl]benzamide] | 100% | 100% | 90 to 100% | 100% | 100% |  | 90 to 100% |  | 85 to 100% | 100% | 100% | 90 to 100% |  |  |  |  |  |  |
| C[C@H](NC(=O)c1cc(Cl)cc(C(F)(F)F)c1)c1ncnn1-c1ccc(N)cn1 [Example I-030, N-{(1S)-1-[1-(5-aminopyridin-2-yl)-1H-1,2,4-triazol-5-yl]ethyl}-3-chloro-5-(trifluoromethyl)benzamide] | 100% | 80% | 90 to 100% | 100% | 100% | 100% | 90 to 100% | 90% |  | 83% | 100% | 90 to 100% | 100% |  |  |  |  |  |
| CC(=O)Nc1ccc(-n2ncnc2[C@H](C)NC(=O)c2cc(Cl)cc(C(F)(F)F)c2)nc1 [Example I-033] | 100% | 100% | 90 to 100% | 100% | 100% | 100% | 90 to 100% | 100% |  | 100% | 100% | 90 to 100% | 100% | 90 to 100% | 90 to 100% | 100% | 100% |  |
| CNC(=O)c1ccc(-n2ncnc2[C@H](C)NC(=O)c2cc(Cl)cc(C(F)(F)F)c2)nc1 [Example I-038, 6-(5-{(1S)-1-[3-chloro-5-(trifluoromethyl)benzamido]ethyl}-1H-1,2,4-triazol-1-yl)-N-methylnicotinamide] | 100% | 100% | 90 to 100% |  |  | 100% | 90 to 100% |  | 85 to 100% | 100% | 100% | 90 to 100% |  | 90 to 100% |  | 90% |  |  |
| C[C@H](NC(=O)c1cc(Cl)cc(C(F)(F)F)c1)c1ncnn1-c1ccc(OCC(F)(F)F)cn1 [Example I-039, 3-chloro-N-[(1S)-1-{1-[5-(2,2,2-trifluoroethoxy)pyridin-2-yl]-1H-1,2,4-triazol-5-yl}ethyl]-5-(trifluoromethyl)benzamide] | 100% | 100% |  | 100% | 100% |  |  |  |  | 100% | 100% |  |  | 90 to 100% |  |  |  | 100% |
| CC[C@H](NC(=O)c1cc(C(F)(F)F)cc(C(F)(F)F)c1)c1ncnn1-c1ccc([N+](=O)[O-])cn1 [Example I-069] |  | 100% |  |  | 100% |  |  |  |  |  | 100% |  |  |  |  |  |  | 70% |
| CC[C@H](NC(=O)c1cc(Cl)cc(OC(F)(F)F)c1)c1ncnn1-c1ccc(C#N)cn1 [Example I-070] |  |  |  | 80% | 100% |  |  |  |  | 100% | 100% |  |  |  |  |  |  | 100% |
| CC[C@H](NC(=O)c1cc(C(F)(F)F)cc(C(F)(F)F)c1)c1ncnn1-c1ccc(NC(=O)C2CC2)cn1 [Example I-094] | 100% |  |  | 100% |  |  |  |  |  |  |  |  | 100% |  |  |  |  | 100% |
